# Reference: PMC8905628, “Integrin α6-Targeted Molecular Imaging of Central Nervous System Leukemia in Mice” (Frontiers in Bioengineering and Biotechnology, 2022)
# Tests used:
# [1] = test system: NALM6-luciferase tumor-bearing mice; experiment: T1-weighted MR imaging of NALM6-luciferase tumor-bearing mice (CNS-L); type: in vivo, NOD/SCID mice; conditions: 0.03 mmol of Gd/kg, tail vein, 3.0 T, baseline and 5, 10, 15 min post-injection
# Description: The human ALL cell lines including NALM6, Reh, Jurkat, and CCRF-CEM were purchased from the American Type Culture Collection (ATCC) and cultured in RPMI 1640 medium supplemented with 10% fetal bovine serum and 0.5% penicillin–streptomycin and incubated at 37 °C/5%CO2. To facilitate tumor monitoring, luminescent cells NALM6-luciferase were generated by stable transfection with luciferase. Female NOD/SCID mice (6 weeks old) were purchased from Vita River, Charles River Laboratories, China (Beijing, China). NOD/SCID mice were injected via the tail vein with 1 × 10^6 luciferased cells suspended in 150 µl of sterile phosphate-buffered saline (PBS). Bioluminescence imaging was applied to monitor the leukemic burden. All animal experiments were approved by the Institutional Animal Care and Use Committee (IACUC) at the Sun Yat-sen University Cancer Center (IACUC approval number L102012020070M), and the welfare and treatment of the laboratory animals were in accordance with the corresponding animal management regulations.
# Bioluminescence confirmed CNS-L mice were used for MR and PET imaging studies in the next few days after the NIRF imaging. MR imaging was performed using a Philips Achieva 3.0 T system. Mice were anesthetized with 2,2,2-Tribromoethanol ([…]), fixed on the holder, and placed into the mouse-imaging coil. […]
# [2] = test system: Human ITGA6 & ITGB4 Heterodimer Protein; experiment: Microscale thermophoresis affinity of S5 peptides; type: binding; conditions: cyclic vs straight S5 peptide; preliminary experiments, Supplementary Figures S2A, S2B; MST, Monolith NT.115, protein 100 nM, peptide from 100 uM diluted 1:1, PBST, 80 % LED/excitation power, medium MST power
# Description: The affinity of cyclic S5 peptide, straight S5 peptide, NOTA-S5 and Gd-S5 with Human ITGA6 & ITGB4 Heterodimer Protein (Manufactured by Sino Biological Catalog Number: CT069-H2508H) was determined by microscale thermophoresis (MST). Firstly, 0.05% PBST was prepared, 25ul of Tween 20 was added to 50ml of PBS and filtered through 0.22um filter paper. Then dilute the peptide: dissolve the above 4 peptides into 1mM storage solution concentration. Take 20 ul of peptide and mix with 80 ul of PBST and dilute to a working concentration of […]. Next dilute the dye: Take 2 µL of RED-tris-NTA II dye (Manufactured by NanoTemper Cat# MO-L018 5 µM) and mix with 98 µl of PBST to obtain 100 µL of dye (100 nM). Finally, 100 ul of Human ITGA6 & ITGB4 Heterodimer Protein (400 nM) was mixed with 100 ul of dye (100 nM) and incubated at room temperature for 30 min, at which time the protein concentration was 200 nM. 10 ul of peptide (200 uM) was added to the PCR tube, and 16 tubes were diluted 1:1 with PBST. Then take 3 ul of protein/dye mixture in the PCR tube, add 3 ul of […] concentrations of peptide and mix well. The concentration of protein was 100 nM and the concentration of peptide in the first tube was 100 uM. […] Kd was calculated by Kd fitting mode using MO.Affinity Analysis.
# NALM6 cells = experiment: Immunofluorescence / confocal microscopy of S5 peptide in NALM6 cells; type: cell-based, human
# Description: Approximately 1 × 10^6 NALM6 cells were seeded on cover slips in 24-well plates and incubated for 24 h. Subsequently, the 80 μM S5 peptide was added into the culture medium and incubated with cells for 4 h, while the blank control group was added to the same volume of RPMI 1640 medium. After that, cells of each group were washed with PBS five times, fixed with 4% paraformaldehyde for 15 min, permeabilized with 0.1% Triton X-100 (Sigma-Aldrich, Germany), and blocked with 1% BSA for 30 min. The cover slips were incubated with the anti-integrin α6 antibody (Abcam, ab181551) at 4°C overnight, followed by incubation with streptavidin-Cy3 (Thermo Fisher 434315, United States) and the goat anti-mouse Alexa Fluor 488 secondary antibody (Abcam, ab150113) for 1 h at room temperature in a dark chamber. Finally, cover slips were incubated with 1 μg/ml DAPI and mounted with slides with ProLong gold antifade (Invitrogen P26930, United States). Fluorescence images were visualized and captured under a confocal microscopy confocal laser-scanning system (Zeiss, LSM980, Germany) at 40× and 100× magnification. Co-localization was analyzed by ImageJ (http://rsbweb.nih.gov/ij/) and the co-localization finder plug-in.
# integrin α6 = conditions: cited from earlier work
# Description: We further translated the RWY peptide into an integrin α6-targeted PET probe and MRI probe that have been successfully applied for tumor imaging of the integrin α6 expression ([Feng GK et al., 2019]; [Xiao et al., 2019]; [Zhang Y et al., 2020]; [Gao et al., 2020]). Recently, our group improved the characteristics of the peptide by alanine scanning and obtained a novel integrin α6-targeting peptide […] (dubbed S5) which ...
compound,measurement,setting,value
"O=C([O-])CN(CCN(CC(=O)[O-])CC(=O)O)CCN(CC(=O)[O-])CC(=O)O.[Gd+3] [Gd-DTPA, gadolinium-diethylenetriamine pentaacetic acid]",MR enhancement signals,[1],did not show obvious enhancement signals
CRWYDANAC [S5],binding of cyclic and straight peptides compared,[2],equivalent
same,cellular uptake of the S5 peptide,"NALM6 cells; 80 μM S5 peptide, 4 h, green fluorescence",entered the cytoplasm through cytocytosis after binding to the cell membrane
same,cellular localization of the S5 peptide,"NALM6 cells; 80 μM S5 peptide, 4 h of co-culturing, fluorescence microscopy",enriched and localized at the nuclei of NALM6 cells
same,location of integrin α6 and the S5 peptide confirmed by confocal microscopy (Discussion),"NALM6 cells; NALM6 cells, as summarised in Discussion",dominating membrane location
same,specificity and affinity to integrin α6,"integrin α6; vs RWY, obtained by alanine scanning, ref Mei et al., 2020, Lin et al., 2021",higher specificity and affinity
CRWYDENAC [reference compound],binding to integrin α6,"integrin α6; identified by phage display technology, ref Feng G et al., 2019",could bind specifically to integrin α6
